Among the data in patent US8809342B2, “Glucagon receptor modulators” (Pfizer Inc., priority 2010, dated 2014) are Kb values, retold here.

Structures are written as SMILES.

The assay concerns the target T1, human glucagon receptor (Homo sapiens, UniProt P47871).
T1 construct: expressed in transfected cells; host or cells: CHO-K1 cells, stably transfected
In words: Glucagon cAMP assay (Cisbio cAMP detection). In kind it is cell-based. How it is done:
The Cisbio cAMP detection assay is used to determine the ability of punitive glucagon antagonist to block glucagon induced cAMP production. Potential glucagon antagonists are re-suspended and diluted in 100% DMSO. Prior to use in the Glucagon cAMP assay 100×DMSO compound stocks are diluted 20× with DMEM-F12 media (Invitrogen) containing either 0.1% or 4% BSA. 2 uls of 5× compound stocks are spotted into the appropriate wells of low binding white solid bottom 384 well plates (Corning). 2 uls of 5% DMSO or known glucagon antagonist are added to each plate to define the assay window. CHOK1 cells stably transfected with the human glucagon receptor are removed from culture flasks with cell dissociation buffer. Cell pellets are re-suspended, at a concentration of 8.3e^5 cells/ml in DMEM-F12 with or without 4% BSA and 200 uM IBMX. 6 uls of cell suspensions are added to the assay plates. Plates are incubated for 20 min at room temperature prior to the addition of a 100 pM challenge dose of glucagon. On a separate plate glucagon dose response curves are run to determine the EC50 of glucagon. After a 30 min room temperature incubation the reaction is terminated by the addition of lysis buffer containing the cAMP detection reagents. Plates are incubated for an additional 60 min at room temperature prior to being read on the Perkin Elmer fluorescent plate reader. Raw is converted to nM of cAMP produced based on a cAMP standard curve. Converted data is then analyzed using the Pfizer data analysis program. IC50 values are determined from the generated sigmoidal dose response curves. Kb values are the calculated using a modified Cheng-Prusoff equation.

T1 sequence (P47871 26-477): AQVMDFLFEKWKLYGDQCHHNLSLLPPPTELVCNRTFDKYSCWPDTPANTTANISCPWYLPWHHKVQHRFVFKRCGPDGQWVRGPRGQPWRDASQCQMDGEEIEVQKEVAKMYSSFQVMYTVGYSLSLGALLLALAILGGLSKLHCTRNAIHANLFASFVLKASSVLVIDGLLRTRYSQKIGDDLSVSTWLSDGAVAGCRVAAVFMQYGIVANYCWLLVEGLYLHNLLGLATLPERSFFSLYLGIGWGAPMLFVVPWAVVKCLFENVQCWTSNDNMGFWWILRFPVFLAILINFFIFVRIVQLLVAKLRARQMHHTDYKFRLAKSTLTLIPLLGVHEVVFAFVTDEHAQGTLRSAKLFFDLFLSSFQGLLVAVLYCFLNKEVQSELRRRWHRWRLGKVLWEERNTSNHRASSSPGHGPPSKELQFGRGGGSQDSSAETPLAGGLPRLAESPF

With `CC(C)CC(Nc1ccc(C(=O)NCCC(=O)O)cn1)c1ccc(-c2ccc(C(F)(F)F)cc2)cc1` (racemic) [Example 1.2, (+/−)-3-(6-(3-methyl-1-(4′-(trifluoromethyl)biphenyl-4-yl)butylamino)nicotinamido)propanoic acid], the Kb worked out at 140 nM. Turning to `CC(C)CC(Nc1ncc(C(=O)NCCC(=O)O)cn1)c1ccc(-c2ccc(C(F)(F)F)cc2)cc1` (racemic) [Example 1.4, (+/−)-3-(2-(3-methyl-1-(4′-(trifluoromethyl)biphenyl-4-yl)butylamino)pyrimidine-5-carboxamido)propanoic acid], the Kb worked out at 560 nM. With `CCCC(Nc1ccc(C(=O)NCCC(=O)O)cn1)c1ccc(-c2ccc(C(F)(F)F)cc2)cc1` (racemic) [Example 1.7, (+/−)-3-(6-(1-(4′-(trifluoromethyl)biphenyl-4-yl)butylamino)nicotinamido)propanoic acid] the figure was 170 nM. `CC(C)C(Nc1ccc(C(=O)NCCC(=O)O)cn1)c1ccc(-c2ccc(C(F)(F)F)cc2)cc1` (racemic) [Example 1.10, (+/−)-3-(6-(2-methyl-1-(4′-(trifluoromethyl)biphenyl-4-yl)propylamino)nicotinamido)propanoic acid] registered a Kb of 180 nM. With `CCC(Nc1ccc(C(=O)NCCC(=O)O)cn1)c1ccc(-c2ccc(C(F)(F)F)cc2)cc1` (racemic) [Example 1.11] the figure was 280 nM. With `CC(C)CC(Nc1cnc(C(=O)NCCC(=O)O)cn1)c1ccc(-c2ccc(C(F)(F)F)cc2)cc1` (racemic) [Example 1.16, (+/−)-3-(5-(3-methyl-1-(4′-(trifluoromethyl)biphenyl-4-yl)butylamino)pyrazine-2-carboxamido)propanoic acid] the figure was 150 nM; with `CC(C)CC(Nc1ncc(C(=O)Nc2nnn[nH]2)cn1)c1ccc(-c2ccc(C(F)(F)F)cc2)cc1` (racemic) [Example 1.19, (+/−)-2-(3-methyl-1-(4′-(trifluoromethyl)biphenyl-4-yl)butylamino)-N-(1H-tetrazol-5-yl)pyrimidine-5-carboxamide], 890 nM. Next, `CC(C)CC(Nc1ccc(C(=O)Nc2nn[nH]n2)cn1)c1ccc(-c2ccc(C(F)(F)F)cc2)cc1` (racemic) [Example 1.20]: 1000 nM. `CC(C)CC(Nc1ccc(C(=O)NCc2nn[nH]n2)cn1)c1ccc(-c2ccc(C(F)(F)F)cc2)cc1` (racemic) [Example 1.21, (+/−)-N-((2H-tetrazol-5-yl)methyl)-6-(3-methyl-1-(4′-(trifluoromethyl)biphenyl-4-yl)butylamino)nicotinamide]: the Kb is 520 nM.

For `CC(C)CC(Nc1ccc(C(=O)NCCS(=O)(=O)O)cn1)c1ccc(-c2ccc(C(F)(F)F)cc2)cc1` (racemic) [Example 1.22, (+/−)-2-(6-(3-methyl-1-(4′-(trifluoromethyl)biphenyl-4-yl)butylamino)nicotinamido) ethanesulfonic acid], the Kb came to 6700 nM. Next, `CC(C)CC(Nc1ccc(C(=O)N(C)CCC(=O)O)cn1)c1ccc(-c2ccc(C(F)(F)F)cc2)cc1` (racemic) [Example 1.23, (+/−)-3-(N-methyl-6-(3-methyl-1-(4′-(trifluoromethyl)biphenyl-4-yl)butylamino)nicotinamido)propanoic acid]: 300 nM. `CC(C)CC(Nc1ccc(C(=O)NC[C@@H](O)C(=O)O)cn1)c1ccc(-c2ccc(C(F)(F)F)cc2)cc1` (mixture of isomers) [Example 1.24, (+/−)-(2R)-2-hydroxy-3-(6-(3-methyl-1-(4′-(trifluoromethyl)biphenyl-4-yl)butylamino)nicotinamido)propanoic acid]: the Kb turned out to be 1600 nM. `Cc1cc(C(CC(C)C)Nc2ccc(C(=O)NCCC(=O)O)cn2)ccc1-c1ccc(C(F)(F)F)cc1` (racemic) [Example 1.25, (+/−)-3-(6-(3-methyl-1-(2-methyl-4′-(trifluoromethyl)biphenyl-4-yl)butylamino)nicotinamido)propanoic acid]: the Kb worked out at 95 nM. Consider `Cc1cc(C(CC(C)C)Nc2ncc(C(=O)NCCC(=O)O)cn2)ccc1-c1ccc(C(F)(F)F)cc1` (racemic) [Example 1.26, (+/−)-3-(2-(3-methyl-1-(2-methyl-4′-(trifluoromethyl)biphenyl-4-yl)butylamino)pyrimidine-5-carboxamido)propanoic acid], for which the Kb came out at 390 nM.

As to `Cc1cc(C(CC(C)C)Nc2ncc(C(=O)NCCC(=O)O)cn2)cc(C)c1-c1ccc(C(F)(F)F)cc1` (racemic) [Example 1.27, (+/−)-3-(2-(1-(2,6-dimethyl-4′-(trifluoromethyl)biphenyl-4-yl)-3-methylbutylamino)pyrimidine-5-carboxamido)propanoic acid], the Kb came out at 260 nM. `Cc1cc(C(CC(C)C)Nc2ccc(C(=O)NCCC(=O)O)cn2)cc(C)c1-c1ccc(C(F)(F)F)cc1` (racemic) [Example 1.28, (+/−)-3-(6-(1-(2,6-dimethyl-4′-(trifluoromethyl)biphenyl-4-yl)-3-methylbutylamino)nicotinamido)propanoic acid] registered a Kb of 83 nM. Take `CC(C)CC(Nc1ccc(C(=O)NCCC(=O)O)cn1)c1ccc(-c2ccc(C(F)(F)F)cc2)nc1` (racemic) [Example 1.29, (+/−)-3-(6-(3-methyl-1-(6-(4-(trifluoromethyl)phenyl)pyridin-3-yl)butylamino)nicotinamido)propanoic acid]: the Kb came out at 160 nM.

In turn, `CCCC(Nc1cnc(C(=O)NCCC(=O)O)cn1)c1ccc(-c2ccc(C(F)(F)F)cc2)cc1` (racemic) [Example 1.30, (+/−)-3-(5-(1-(4′-(trifluoromethyl)biphenyl-4-yl)butylamino)pyrazine-2-carboxamido)propanoic acid] gave a Kb of 540 nM.

In the case of `CCC(Nc1cnc(C(=O)NCCC(=O)O)cn1)c1ccc(-c2ccc(C(F)(F)F)cc2)cc1` (racemic) [Example 1.31, (+/−)-3-(5-(1-(4′-(trifluoromethyl)biphenyl-4-yl)propylamino)pyrazine-2-carboxamido)propanoic acid], the Kb worked out at 540 nM. `O=C(O)CCNC(=O)c1ccc(NC(c2ccc(-c3ccc(C(F)(F)F)cc3)cc2)C2CCC2)nc1` (racemic) [Example 1.32, (+/−)-3-(6-(cyclobutyl(4′-(trifluoromethyl)biphenyl-4-yl)methylamino)nicotinamido)propanoic acid] displayed a Kb of 610 nM. With `CC(C)(C)CC(Nc1ccc(C(=O)NCCC(=O)O)cn1)c1ccc(-c2ccc(C(F)(F)F)cc2)cc1` (racemic) [Example 1.33, (+/−)-3-(6-(3,3-dimethyl-1-(4′-(trifluoromethyl)biphenyl-4-yl)butylamino)nicotinamido)propanoic acid] the figure was 120 nM; with `O=C(O)CCNC(=O)c1ccc(NC(c2ccc(-c3ccc(C(F)(F)F)cc3)cc2)C2CC2)nc1` (racemic) [Example 1.34, (+/−)-3-(6-(cyclopropyl(4′-(trifluoromethyl)biphenyl-4-yl)methylamino)nicotinamido)propanoic acid], 550 nM; with `O=C(O)CCNC(=O)c1ccc(NC(c2ccc(-c3ccc(C(F)(F)F)cc3)cc2)C2CCCC2)nc1` (racemic) [Example 1.35, (+/−)-3-(6-(cyclopentyl(4′-(trifluoromethyl)biphenyl-4-yl)methylamino)nicotinamido)propanoic acid], 50 nM. With `Cc1ccc(-c2ccc(C(CC(C)C)Nc3ccc(C(=O)NCCC(=O)O)cn3)cc2)cn1` (racemic) [Example 1.36, (+/−)-3-(6-(3-methyl-1-(4-(6-methylpyridin-3-yl)phenyl)butylamino)nicotinamido)propanoic acid] the figure was 870 nM; with `CC(C)CC(Nc1ccc(C(=O)NCCC(=O)O)cn1)c1ccc(-c2ccccc2)cc1` (racemic) [Example 1.37], 220 nM; with `CC(C)CC(Nc1ccc(C(=O)NCCC(=O)O)cn1)c1ccc(-c2ccccc2F)cc1` (racemic) [Example 1.38, (+/−)-3-(6-(1-(2′-fluorobiphenyl-4-yl)-3-methylbutylamino)nicotinamido)propanoic acid], 600 nM.

In turn, `CC(C)CC(Nc1ccc(C(=O)NCCC(=O)O)cn1)c1ccc(-c2cccc(Cl)c2)cc1` (racemic) [Example 1.39, (+/−)-3-(6-(1-(3′-chlorobiphenyl-4-yl)-3-methylbutylamino)nicotinamido)propanoic acid] returned a Kb of 110 nM. Next, `CC(C)CC(Nc1ccc(C(=O)NCCC(=O)O)cn1)c1ccc(-c2cccnc2)cc1` (racemic) [Example 1.40, (+/−)-3-(6-(3-methyl-1-(4-(pyridin-3-yl)phenyl)butylamino)nicotinamido)propanoic acid]: 4600 nM. As to `CC(C)CC(Nc1ccc(C(=O)NCCC(=O)O)cn1)c1ccc(-c2cccc(F)c2)cc1` (racemic) [Example 1.41, (+/−)-3-(6-(1-(3′-fluorobiphenyl-4-yl)-3-methylbutylamino)nicotinamido)propanoic acid], the Kb is 450 nM. Compound `Cc1ccccc1-c1ccc(C(CC(C)C)Nc2ccc(C(=O)NCCC(=O)O)cn2)cc1` (racemic) [Example 1.42, (+/−)-3-(6-(3-methyl-1-(2′-methylbiphenyl-4-yl)butylamino)nicotinamido)propanoic acid] had a Kb of 780 nM.
